Data published in US10165776B2, “Substituted pyrazolylpyrazole derivative and use of same as herbicide” (KYOYU AGRI CO., LTD., priority 2015, dated 2019).

How the values were obtained:
Assay type in all cases: in vivo
Echinochloa crus-galli = experiment: Paddy herbicidal activity test; settings: irrigated pot, treated at 3.5 leaf stage of Echinochloa crus-galli, 30 days at 30° C.
Procedure: (§1) Rice paddy soil was filled into a 1/10000 are pot followed by the addition of suitable amounts of water and chemical fertilizer, kneading, seeding with Echinochloa crus-galli, Monochoria vaginalis and Scirpus juncoides and maintaining in an irrigated state at a water depth of 3 cm. Wettable powders of Target Compound (I) shown in Table 1 prepared in compliance with the preparation examples were diluted with a suitable amount of water, rice plants in the 2.0 leaf stage were transplanted during 3.5 leaf stage of Echinochloa crus-galli, and treated by dropping in chemical in the prescribed amount per 10 are using a pipette. After treating for 30 days in a glass greenhouse at an average atmospheric temperature of 30° C., the herbicidal efficacy thereof was investigated. Evaluation of herbicidal efficacy was carried out by comparing growth inhibition rate (%) with an untreated group, while evaluation of phytotoxicity was carried out by comparing growth inhibition rate (%) with the state of a complete eradication group, and were evaluated at 11 levels indicated below.

Scirpus juncoides = experiment: Paddy herbicidal activity test; settings: irrigated pot, treated at 3.5 leaf stage of Echinochloa crus-galli, 30 days at 30° C.
Procedure: as §1

Monochoria vaginalis = experiment: Paddy herbicidal activity test; settings: irrigated pot, treated at 3.5 leaf stage of Echinochloa crus-galli, 30 days at 30° C.
Procedure: as §1

Chenopodium album [1] = experiment: Farming soil treatment test; settings: soil surface spray prior to weed growth, 30 days at 30° C.
Procedure: (§2) Field soil was filled into a 1/6000 are pot followed by seeding with Digitaria ciliaris, Chenopodium album and Amaranthus retroflexus and covering with soil. Wettable powders of compounds of formula (I) shown in Table 1 prepared in compliance with the preparation examples were diluted with water to the prescribed amount of chemical and uniformly sprayed onto each soil surface layer using 100 liters of sprayed water per 10 are prior to weed growth following seeding. After treating for 30 days in a glass greenhouse at an average atmospheric temperature of 30° C., the herbicidal efficacy thereof was investigated. Evaluation of herbicidal efficacy was carried out in the same manner as the above-mentioned Test Example 1.

Amaranthus retroflexus [2] = experiment: Farming soil treatment test; settings: soil surface spray prior to weed growth, 30 days at 30° C.
Procedure: as §2

Digitaria ciliaris [3] = experiment: Farming soil treatment test; settings: soil surface spray prior to weed growth, 30 days at 30° C.
Procedure: as §2

Digitaria ciliaris [4] = experiment: Weed foliar treatment test (Test 4, 4.0 to 5.0 leaf stage); settings: 10 g a.i./10 a; foliar spray at 4.0 to 5.0 leaf stage of Digitaria ciliaris (plant height 10 cm to 15 cm); 20 days at 25° C.
Procedure: (§3) Field soil was filled into a 1/4500 are pot followed by seeding with Digitaria ciliaris and Galinsoga parviflora, covering with soil and cultivating in a glass greenhouse at an average atmospheric temperature of 25° C. Wettable powders of Target Compound (I) shown in Table 1 prepared in compliance with the preparation examples were diluted with water to the prescribed amount of chemical and uniformly sprayed onto the weeds using 100 liters of sprayed water per 10 are when Digitaria ciliaris had grown to the 4.0 to 5.0 leaf stage (plant height: 10 cm to 15 cm). After treating for 20 days in a glass greenhouse at an average atmospheric temperature of 25° C., the herbicidal efficacy thereof was investigated. Evaluation of herbicidal efficacy was carried out in the same manner as the above-mentioned Test Example 1.

Galinsoga parviflora = experiment: as above; settings: 10 g a.i./10 a; foliar spray at 4.0 to 5.0 leaf stage of Digitaria ciliaris (plant height 10 cm to 15 cm); 20 days at 25° C.
Procedure: as §3

Oryza sativa = experiment: Paddy herbicidal activity test, phytotoxicity to transplanted rice; settings: rice transplanted at 2.0 leaf stage, 30 days at 30° C.
Procedure: as §1

Chenopodium album [5] = experiment: Weed foliar treatment test (Test 3, 1.0 to 2.0 leaf stage); settings: foliar spray at 1.0 to 2.0 leaf stage of Digitaria ciliaris, 3 weeks at 25° C.
Procedure: (§4) Soil was filled into a 1/6000 are pot followed by seeding with Digitaria ciliaris, Chenopodium album and Amaranthus retroflexus, covering with soil, and cultivating in a glass greenhouse at an average atmospheric temperature of 25° C. Wettable powders of Target Compound (I) shown in Table 1 prepared in compliance with the preparation examples were diluted with water to the prescribed amount of chemical and uniformly sprayed onto the weeds using 150 liters of sprayed water per 10 are when Digitaria ciliaris had grown to the 1.0 to 2.0 leaf stage. After treating for 3 weeks in a glass greenhouse at an average atmospheric temperature of 25° C., the herbicidal efficacy thereof was investigated. Evaluation of herbicidal efficacy was carried out in the same manner as the above-mentioned Test Example 1.

Amaranthus retroflexus [6] = experiment: as above; settings: foliar spray at 1.0 to 2.0 leaf stage of Digitaria ciliaris, 3 weeks at 25° C.
Procedure: as §4

Digitaria ciliaris [7] = experiment: as above; settings: foliar spray at 1.0 to 2.0 leaf stage of Digitaria ciliaris, 3 weeks at 25° C.
Procedure: as §4

SMILES | herbicidal efficacy, Echinochloa crus-galli (Echinochloa crus-galli; 1 g a.i./10 a) | herbicidal efficacy, Echinochloa crus-galli (Echinochloa crus-galli; 5 g a.i./10 a) | herbicidal efficacy, Scirpus juncoides (Scirpus juncoides; 1 g a.i./10 a) | herbicidal efficacy, Scirpus juncoides (Scirpus juncoides; 5 g a.i./10 a) | herbicidal efficacy, Monochoria vaginalis (Monochoria vaginalis; 1 g a.i./10 a) | herbicidal efficacy, Monochoria vaginalis (Monochoria vaginalis; 5 g a.i./10 a) | herbicidal efficacy, Chenopodium album (Chenopodium album [1]; 5 g a.i./10 a) | herbicidal efficacy, Chenopodium album (Chenopodium album [1]; 10 g a.i./10 a) | herbicidal efficacy, Amaranthus retroflexus (Amaranthus retroflexus [2]; 5 g a.i./10 a) | herbicidal efficacy, Amaranthus retroflexus (Amaranthus retroflexus [2]; 10 g a.i./10 a) | herbicidal efficacy, Digitaria ciliaris (Digitaria ciliaris [3]; 5 g a.i./10 a) | herbicidal efficacy, Digitaria ciliaris (Digitaria ciliaris [3]; 10 g a.i./10 a) | herbicidal efficacy, Digitaria ciliaris (Digitaria ciliaris [4]) | herbicidal efficacy, Galinsoga parviflora (Galinsoga parviflora) | phytotoxicity, Oryza sativa (Oryza sativa; 1 g a.i./10 a) | phytotoxicity, Oryza sativa (Oryza sativa; 5 g a.i./10 a) | herbicidal efficacy, Chenopodium album (Chenopodium album [5]; 5 g a.i./10 a) | herbicidal efficacy, Chenopodium album (Chenopodium album [5]; 10 g a.i./10 a) | herbicidal efficacy, Amaranthus retroflexus (Amaranthus retroflexus [6]; 5 g a.i./10 a) | herbicidal efficacy, Amaranthus retroflexus (Amaranthus retroflexus [6]; 10 g a.i./10 a) | also measured
O=C(Cc1ccccc1)Nc1c([N+](=O)[O-])cnn1-c1nn2c(c1Cl)CCCC2 [Compound 5] | 10 (10: 100%) | 10 (10: 100%) | 9 (9: 90% to less than 100%) | 10 (10: 100%) | 10 (10: 100%) | 10 (10: 100%) | 9 (9: 90% to less than 100%) | 10 (10: 100%) | 9 (9: 90% to less than 100%) | 9 (9: 90% to less than 100%) | 9 (9: 90% to less than 100%) | 9 (9: 90% to less than 100%) | 10 (10: 100%) | 10 (10: 100%) | 1 (1: 10% to less than 20%) | 1 (1: 10% to less than 20%) | 10 (10: 100%) | 10 (10: 100%) | 10 (10: 100%) | 10 (10: 100%) | herbicidal efficacy, Digitaria ciliaris (Digitaria ciliaris [7]; 5 g a.i./10 a): 10 (10: 100%); herbicidal efficacy, Digitaria ciliaris (Digitaria ciliaris [7]; 10 g a.i./10 a): 10 (10: 100%)
N#Cc1cnn(-c2nn3c(c2Cl)CCCC3)c1NC(=O)Cc1cccc(F)c1 [Compound 11] | 9 (9: 90% to less than 100%) | 10 (10: 100%) | 9 (9: 90% to less than 100%) | 10 (10: 100%) | 9 (9: 90% to less than 100%) | 9 (9: 90% to less than 100%) | 10 (10: 100%) | 10 (10: 100%) | 9 (9: 90% to less than 100%) | 9 (9: 90% to less than 100%) | 9 (9: 90% to less than 100%) | 10 (10: 100%) | 10 (10: 100%) | 10 (10: 100%) | 0 (0 (exponent): 0% to less than 10% (growth inhibition rate)) | 1 (1: 10% to less than 20%) | 10 (10: 100%) | 10 (10: 100%) | 10 (10: 100%) | 10 (10: 100%) | herbicidal efficacy, Digitaria ciliaris (Digitaria ciliaris [7]; 5 g a.i./10 a): 10 (10: 100%); herbicidal efficacy, Digitaria ciliaris (Digitaria ciliaris [7]; 10 g a.i./10 a): 10 (10: 100%)
